In PMC4929832 (Nature, 2016):

Tests used:
[1] = molecular target: AKT1 (Homo sapiens, UniProt P31749); assay: kinase panel; type: biochemical
[2] = molecular target: CK1-GAMMA1 (Homo sapiens, UniProt Q9HCP0); assay: kinase panel; type: biochemical
[3] = molecular target: PAK6 (Homo sapiens, UniProt Q9NQU5); assay: kinase panel; type: biochemical
[4] = molecular target: MAPKAPK2 (Homo sapiens, UniProt P49137); assay: kinase panel; type: biochemical
[5] = molecular target: CLK3 (Homo sapiens, UniProt P49761); assay: kinase panel; type: biochemical
[6] = molecular target: GSK-3-ALPHA (Homo sapiens, UniProt P49840); assay: kinase panel; type: biochemical
[7] = molecular target: AURORA-A (Homo sapiens, UniProt O14965); assay: kinase panel; type: biochemical
[8] = molecular target: HIPK1 (Homo sapiens, UniProt Q86Z02); assay: kinase panel; type: biochemical
[9] = molecular target: MER (Homo sapiens, UniProt Q12866); assay: kinase panel; type: biochemical
[10] = molecular target: MKNK1 (Homo sapiens, UniProt Q9BUB5); assay: kinase panel; type: biochemical
[11] = molecular target: BLK (Homo sapiens, UniProt P51451); assay: kinase panel; type: biochemical
[12] = molecular target: DYRK1A (Homo sapiens, UniProt Q13627); assay: kinase panel; type: biochemical
[13] = molecular target: IKK-BETA (Homo sapiens, UniProt O14920); assay: kinase panel; type: biochemical
[14] = molecular target: IKK-EPSILON (Homo sapiens, UniProt Q14164); assay: kinase panel; type: biochemical
[15] = molecular target: MSK2 (Homo sapiens, UniProt O75676); assay: kinase panel; type: biochemical
[16] = molecular target: BRSK2 (Homo sapiens, UniProt Q8IWQ3); assay: kinase panel; type: biochemical
[17] = molecular target: IRR (Homo sapiens, UniProt P14616); assay: kinase panel; type: biochemical
[18] = molecular target: MST4 (Homo sapiens, UniProt Q9P289); assay: kinase panel; type: biochemical
[19] = molecular target: JAK2 (Homo sapiens, UniProt O60674); assay: kinase panel; type: biochemical
[20] = molecular target: NDR2 (Homo sapiens, UniProt Q9Y2H1); assay: kinase panel; type: biochemical
[21] = molecular target: PKN1 (Homo sapiens, UniProt Q16512); assay: kinase panel; type: biochemical
[22] = molecular target: JNK1 (Homo sapiens, UniProt P45983); assay: kinase panel; type: biochemical
[23] = molecular target: EPH-B3 (Homo sapiens, UniProt P54753); assay: kinase panel; type: biochemical
[24] = molecular target: NEK2 (Homo sapiens, UniProt P51955); assay: kinase panel; type: biochemical
[25] = molecular target: CDK1 (Homo sapiens, UniProt P06493); assay: kinase panel; type: biochemical
[26] = molecular target: NEK3 (Homo sapiens, UniProt P51956); assay: kinase panel; type: biochemical
[27] = molecular target: FER (Homo sapiens, UniProt P16591); assay: kinase panel; type: biochemical
[28] = molecular target: TRKB (Homo sapiens, UniProt Q16620); assay: kinase panel; type: biochemical
[29] = molecular target: CDK4-CYCLIND (Homo sapiens, UniProt P11802); assay: kinase panel; type: biochemical
[30] = molecular target: LIMK1 (Homo sapiens, UniProt P53667); assay: kinase panel; type: biochemical
[31] = molecular target: FGFR2 (Homo sapiens, UniProt P21802); assay: kinase panel; type: biochemical
[32] = molecular target: LOK (Homo sapiens, UniProt O94804); assay: kinase panel; type: biochemical
[33] = molecular target: LTK (Homo sapiens, UniProt P29376); assay: kinase panel; type: biochemical
[34] = molecular target: P70S6K1 (Homo sapiens, UniProt P23443); assay: kinase panel; type: biochemical
[35] = tested on: CK1; assay: kinase panel; type: biochemical; conditions: CK1, 1 μM
[36] = molecular target: Adenosine 2A receptor (Homo sapiens, UniProt P29274); assay: Adenosine 2A receptor binding assay
[37] = molecular target: Adenosine 3 receptor (Homo sapiens, UniProt P0DMS8); assay: Adenosine 3 receptor binding assay
[38] = molecular target: Histamine H1 receptor (Homo sapiens, UniProt P35367); assay: Histamine H1 receptor assay; type: binding
[39] = molecular target: Muscarinic M1 receptor (Homo sapiens, UniProt P11229); assay: Muscarinic M1 receptor assay; type: binding
[40] = molecular target: Progesterone Receptor (Homo sapiens, UniProt P06401); assay: Progesterone Receptor agonist assay; type: cell-based
[41] = molecular target: Serotonin 5HT2A (Homo sapiens, UniProt P28223); assay: Serotonin 5HT2A calcium flux assay; type: cell-based
[42] = tested on: L858R/T790M-mutant lung cancer (genetically engineered mice); assay: Mouse efficacy study, tumor volume by MRI; type: in vivo; conditions: EAI045 alone 60 mg/kg oral once daily, 4 weeks

LTK, sequence (P29376 17-864): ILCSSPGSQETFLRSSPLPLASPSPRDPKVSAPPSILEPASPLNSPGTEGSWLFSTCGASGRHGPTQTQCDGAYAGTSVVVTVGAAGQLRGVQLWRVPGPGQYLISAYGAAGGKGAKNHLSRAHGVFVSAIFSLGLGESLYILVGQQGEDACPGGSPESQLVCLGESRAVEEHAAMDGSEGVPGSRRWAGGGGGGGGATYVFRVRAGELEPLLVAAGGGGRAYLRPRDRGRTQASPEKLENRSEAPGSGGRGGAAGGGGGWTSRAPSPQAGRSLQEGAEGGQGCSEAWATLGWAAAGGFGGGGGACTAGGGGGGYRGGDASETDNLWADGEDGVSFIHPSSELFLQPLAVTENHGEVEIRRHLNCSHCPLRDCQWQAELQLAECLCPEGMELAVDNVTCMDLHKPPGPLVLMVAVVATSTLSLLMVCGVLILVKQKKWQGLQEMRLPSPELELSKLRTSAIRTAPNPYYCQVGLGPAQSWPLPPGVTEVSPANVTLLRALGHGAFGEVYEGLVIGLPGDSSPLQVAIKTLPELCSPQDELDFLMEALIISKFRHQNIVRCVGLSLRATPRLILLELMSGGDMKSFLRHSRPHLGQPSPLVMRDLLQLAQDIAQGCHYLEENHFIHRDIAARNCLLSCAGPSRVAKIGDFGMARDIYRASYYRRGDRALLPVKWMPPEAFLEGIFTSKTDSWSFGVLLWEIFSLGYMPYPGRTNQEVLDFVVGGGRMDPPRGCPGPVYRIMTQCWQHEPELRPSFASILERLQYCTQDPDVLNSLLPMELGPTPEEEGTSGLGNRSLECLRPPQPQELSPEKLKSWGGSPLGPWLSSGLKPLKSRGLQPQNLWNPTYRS
Adenosine 2A receptor, sequence (P29274 whole entry): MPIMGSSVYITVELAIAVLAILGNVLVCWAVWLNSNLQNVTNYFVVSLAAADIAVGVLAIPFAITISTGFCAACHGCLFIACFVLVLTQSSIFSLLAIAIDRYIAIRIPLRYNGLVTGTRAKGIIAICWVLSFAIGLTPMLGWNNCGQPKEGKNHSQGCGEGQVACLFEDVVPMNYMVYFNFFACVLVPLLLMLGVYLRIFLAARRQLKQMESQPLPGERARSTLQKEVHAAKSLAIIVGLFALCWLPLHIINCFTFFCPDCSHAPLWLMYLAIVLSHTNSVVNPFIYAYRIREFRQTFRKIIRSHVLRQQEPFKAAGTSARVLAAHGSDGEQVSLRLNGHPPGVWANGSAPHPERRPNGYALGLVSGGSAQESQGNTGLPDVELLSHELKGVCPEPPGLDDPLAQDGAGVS
EPH-B3, sequence (P54753 34-998): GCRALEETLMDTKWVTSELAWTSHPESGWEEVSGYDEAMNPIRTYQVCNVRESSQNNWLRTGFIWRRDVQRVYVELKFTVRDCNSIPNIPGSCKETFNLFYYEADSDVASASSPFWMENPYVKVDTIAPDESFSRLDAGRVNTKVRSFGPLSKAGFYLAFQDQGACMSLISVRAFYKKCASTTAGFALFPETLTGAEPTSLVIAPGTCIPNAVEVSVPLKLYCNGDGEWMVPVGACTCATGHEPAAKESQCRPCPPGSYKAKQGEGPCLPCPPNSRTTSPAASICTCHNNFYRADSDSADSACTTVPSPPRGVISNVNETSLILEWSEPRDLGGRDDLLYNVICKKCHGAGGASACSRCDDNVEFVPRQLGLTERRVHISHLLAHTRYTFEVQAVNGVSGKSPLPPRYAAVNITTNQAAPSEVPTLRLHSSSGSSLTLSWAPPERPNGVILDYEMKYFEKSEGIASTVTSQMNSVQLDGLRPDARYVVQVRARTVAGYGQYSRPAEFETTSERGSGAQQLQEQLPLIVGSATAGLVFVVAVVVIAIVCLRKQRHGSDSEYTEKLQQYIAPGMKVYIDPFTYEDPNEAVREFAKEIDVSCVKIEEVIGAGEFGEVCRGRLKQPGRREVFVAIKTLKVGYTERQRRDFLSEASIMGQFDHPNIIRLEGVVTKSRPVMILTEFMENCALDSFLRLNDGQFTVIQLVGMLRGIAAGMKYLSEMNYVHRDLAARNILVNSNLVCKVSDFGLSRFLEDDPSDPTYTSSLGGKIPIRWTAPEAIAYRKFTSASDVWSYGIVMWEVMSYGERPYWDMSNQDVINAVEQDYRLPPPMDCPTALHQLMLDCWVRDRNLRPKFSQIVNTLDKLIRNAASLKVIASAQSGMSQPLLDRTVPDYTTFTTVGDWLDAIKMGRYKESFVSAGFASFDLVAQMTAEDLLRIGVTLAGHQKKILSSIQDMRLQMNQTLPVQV
CK1-GAMMA1, sequence (Q9HCP0 whole entry): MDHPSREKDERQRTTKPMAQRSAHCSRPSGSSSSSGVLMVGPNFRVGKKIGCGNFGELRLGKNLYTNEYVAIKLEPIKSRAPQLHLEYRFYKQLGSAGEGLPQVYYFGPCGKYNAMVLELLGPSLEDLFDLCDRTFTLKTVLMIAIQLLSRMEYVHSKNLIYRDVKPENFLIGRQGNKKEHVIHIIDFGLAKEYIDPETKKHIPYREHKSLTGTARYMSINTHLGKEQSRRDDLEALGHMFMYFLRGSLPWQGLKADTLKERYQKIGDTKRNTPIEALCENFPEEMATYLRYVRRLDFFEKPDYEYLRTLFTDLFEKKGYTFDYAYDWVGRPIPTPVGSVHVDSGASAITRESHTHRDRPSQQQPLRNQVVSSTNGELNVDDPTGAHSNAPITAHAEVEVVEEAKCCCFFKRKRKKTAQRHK
P70S6K1, sequence (P23443 whole entry): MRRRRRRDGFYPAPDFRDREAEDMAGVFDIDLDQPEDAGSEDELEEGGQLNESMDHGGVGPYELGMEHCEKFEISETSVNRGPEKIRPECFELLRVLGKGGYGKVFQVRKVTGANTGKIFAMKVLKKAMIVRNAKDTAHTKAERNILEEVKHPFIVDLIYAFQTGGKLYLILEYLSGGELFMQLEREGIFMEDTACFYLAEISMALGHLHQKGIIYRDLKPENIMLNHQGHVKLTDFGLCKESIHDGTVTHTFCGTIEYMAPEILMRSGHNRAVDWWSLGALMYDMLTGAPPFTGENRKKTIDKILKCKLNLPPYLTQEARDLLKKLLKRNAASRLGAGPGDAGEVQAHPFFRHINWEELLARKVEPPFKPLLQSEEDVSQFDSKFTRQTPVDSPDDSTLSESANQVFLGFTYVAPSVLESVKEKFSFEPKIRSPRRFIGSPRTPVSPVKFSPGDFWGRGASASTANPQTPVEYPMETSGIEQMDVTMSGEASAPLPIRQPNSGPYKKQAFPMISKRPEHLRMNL
FGFR2, sequence (P21802 22-821): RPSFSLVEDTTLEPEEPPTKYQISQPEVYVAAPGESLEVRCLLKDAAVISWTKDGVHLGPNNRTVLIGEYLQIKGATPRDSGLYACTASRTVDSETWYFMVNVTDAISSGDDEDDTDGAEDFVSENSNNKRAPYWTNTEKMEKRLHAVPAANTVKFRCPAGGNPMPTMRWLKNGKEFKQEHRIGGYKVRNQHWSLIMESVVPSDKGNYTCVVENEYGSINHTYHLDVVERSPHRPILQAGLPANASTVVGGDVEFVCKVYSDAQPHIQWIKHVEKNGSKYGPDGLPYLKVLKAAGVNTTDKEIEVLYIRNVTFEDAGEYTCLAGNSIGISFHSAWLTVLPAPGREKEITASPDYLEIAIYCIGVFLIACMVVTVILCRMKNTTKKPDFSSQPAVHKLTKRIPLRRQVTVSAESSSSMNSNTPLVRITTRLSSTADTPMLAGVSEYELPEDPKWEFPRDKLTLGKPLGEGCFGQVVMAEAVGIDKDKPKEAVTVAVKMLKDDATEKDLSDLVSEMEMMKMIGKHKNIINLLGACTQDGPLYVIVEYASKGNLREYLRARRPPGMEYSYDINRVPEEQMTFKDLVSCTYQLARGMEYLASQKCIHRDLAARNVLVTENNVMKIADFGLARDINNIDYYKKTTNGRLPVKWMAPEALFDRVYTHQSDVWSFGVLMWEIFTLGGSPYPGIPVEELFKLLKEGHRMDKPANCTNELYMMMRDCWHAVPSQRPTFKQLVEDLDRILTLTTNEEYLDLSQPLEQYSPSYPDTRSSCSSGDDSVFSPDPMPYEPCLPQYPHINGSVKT
Progesterone Receptor, sequence (P06401 whole entry, species assumed): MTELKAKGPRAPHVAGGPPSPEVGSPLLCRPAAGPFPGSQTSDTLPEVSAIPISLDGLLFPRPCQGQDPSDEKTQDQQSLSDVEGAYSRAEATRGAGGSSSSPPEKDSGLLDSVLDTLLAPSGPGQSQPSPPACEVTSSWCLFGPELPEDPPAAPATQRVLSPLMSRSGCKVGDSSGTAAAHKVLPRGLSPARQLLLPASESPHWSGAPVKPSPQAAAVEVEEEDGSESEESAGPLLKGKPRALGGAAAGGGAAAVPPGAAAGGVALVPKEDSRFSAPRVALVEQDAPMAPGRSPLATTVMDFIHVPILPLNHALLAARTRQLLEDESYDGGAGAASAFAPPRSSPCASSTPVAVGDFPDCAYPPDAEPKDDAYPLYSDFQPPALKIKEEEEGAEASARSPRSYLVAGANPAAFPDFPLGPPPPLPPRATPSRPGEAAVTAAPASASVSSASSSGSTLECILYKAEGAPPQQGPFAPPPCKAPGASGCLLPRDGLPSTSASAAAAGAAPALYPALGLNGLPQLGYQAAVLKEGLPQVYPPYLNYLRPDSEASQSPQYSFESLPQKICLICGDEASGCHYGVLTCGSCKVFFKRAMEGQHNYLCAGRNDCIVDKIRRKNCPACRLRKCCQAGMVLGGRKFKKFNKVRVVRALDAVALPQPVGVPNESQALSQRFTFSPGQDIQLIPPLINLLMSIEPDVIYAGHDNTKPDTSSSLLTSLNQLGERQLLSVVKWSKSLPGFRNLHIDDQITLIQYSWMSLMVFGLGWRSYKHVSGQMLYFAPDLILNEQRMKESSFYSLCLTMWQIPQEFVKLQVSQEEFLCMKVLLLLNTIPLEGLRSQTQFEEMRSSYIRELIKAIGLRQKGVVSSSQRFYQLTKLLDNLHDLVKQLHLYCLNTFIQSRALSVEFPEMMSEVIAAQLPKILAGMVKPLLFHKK

How did the inhibition at 1 µM [1] turn out when O=C(Nc1nccs1)C(c1cc(F)ccc1O)N1Cc2ccccc2C1=O (stereo not drawn) [EAI045, 2-(5-fluoro-2-hydroxyphenyl)-2-(1-oxo-2,3-dihydro-1H-isoindol-2-yl)-N-(1,3-thiazol-2-yl)acetamide] was run?
Its inhibition at 1 µM is 0%.

And the inhibition at 1 µM [2]?
The inhibition at 1 µM was 2%.

What about the inhibition at 1 µM [3] of the same compound?
The inhibition at 1 µM was 0%.

What about the inhibition at 1 µM [4] of the same compound?
The inhibition at 1 µM was 0%.

What about the inhibition at 1 µM [5] of the same compound?
The inhibition at 1 µM was 0%.

What about the inhibition at 1 µM [6] of the same compound?
The inhibition at 1 µM was 6%.

What about the inhibition at 1 µM [7] of the same compound?
Its inhibition at 1 µM is 0%.

What about the inhibition at 1 µM [8] of the same compound?
The inhibition at 1 µM was 1%.

And the inhibition at 1 µM [9]?
Its inhibition at 1 µM is 8%.

What about the inhibition at 1 µM [10] of the same compound?
The inhibition at 1 µM was 0%.

What about the inhibition at 1 µM [11] of the same compound?
The inhibition at 1 µM was 3%.

And the inhibition at 1 µM [12]?
Its inhibition at 1 µM is 0%.

What about the inhibition at 1 µM [13] of the same compound?
Its inhibition at 1 µM is 0%.

And the inhibition at 1 µM [14]?
The inhibition at 1 µM was 0%.

And the inhibition at 1 µM [15]?
Its inhibition at 1 µM is 2%.

What about the inhibition at 1 µM [16] of the same compound?
Its inhibition at 1 µM is 0%.

And the inhibition at 1 µM [17]?
The inhibition at 1 µM was 0%.

What about the inhibition at 1 µM [18] of the same compound?
Its inhibition at 1 µM is 0%.

What about the inhibition at 1 µM [19] of the same compound?
Its inhibition at 1 µM is 2%.

What about the inhibition at 1 µM [20] of the same compound?
The inhibition at 1 µM was 0%.

And the inhibition at 1 µM [21]?
Its inhibition at 1 µM is 0%.

What about the inhibition at 1 µM [22] of the same compound?
The inhibition at 1 µM was 0%.

What about the inhibition at 1 µM [23] of the same compound?
The inhibition at 1 µM was 0%.

And the inhibition at 1 µM [24]?
Its inhibition at 1 µM is 2%.

What about the inhibition at 1 µM [25] of the same compound?
Its inhibition at 1 µM is 2%.

What about the inhibition at 1 µM [26] of the same compound?
The inhibition at 1 µM was 0%.

And the inhibition at 1 µM [27]?
Its inhibition at 1 µM is 4%.

What about the inhibition at 1 µM [28] of the same compound?
The inhibition at 1 µM was 3%.

And the inhibition at 1 µM [29]?
The inhibition at 1 µM was 0%.

And the inhibition at 1 µM [30]?
Its inhibition at 1 µM is 0%.

And the inhibition at 1 µM [31]?
Its inhibition at 1 µM is 1%.

What about the inhibition at 1 µM [32] of the same compound?
The inhibition at 1 µM was 1%.

What about the inhibition at 1 µM [33] of the same compound?
The inhibition at 1 µM was 1%.

What about the inhibition at 1 µM [34] of the same compound?
Its inhibition at 1 µM is 0%.

What about the “% inhibition” value [35] of the same compound?
The value was 0%.

And the IC50 [36]?
The IC50 was greater than 30 µM.

And the IC50 [37]?
The IC50 was greater than 30 µM.

And the IC50 [38]?
Its IC50 is greater than 30 µM.

And the IC50 [39]?
The IC50 was greater than 30 µM.

What about the IC50 [40] of the same compound?
The IC50 was greater than 30 µM.

And the IC50 [41]?
Its IC50 is greater than 30 µM.

What about the tumor response [42] of the same compound?
Its tumor response is “did not respond”.
